Test results reported in patent US20190322676A1, “CERAMIDE GALACTOSYLTRANSFERASE INHIBITORS FOR THE TREATMENT OF DISEASE” (BioMarin Pharmaceutical Inc., priority 2016, published 2019).
Structures can show the parent of a compound that is named as a salt.

molecular target: T1, human CGT (ceramide galactosyltransferase), CHO/CGT lysate (Homo sapiens, UniProt Q16880); experiment: CGT enzyme assay, RapidFire/MS/MS readout (Table 1 ranges with one asterisk *); type: biochemical; settings: RapidFire method (range with one asterisk *)
T1 construct: Full-length human CGT cDNA was cloned into the BamH1/Xho1 site of pcDNA3.1 (+); expressed in transfected cells; host or cells: Chinese hamster ovary (CHO) cells; lysate prepared with M-PER
T1 sequence (Q16880 21-541): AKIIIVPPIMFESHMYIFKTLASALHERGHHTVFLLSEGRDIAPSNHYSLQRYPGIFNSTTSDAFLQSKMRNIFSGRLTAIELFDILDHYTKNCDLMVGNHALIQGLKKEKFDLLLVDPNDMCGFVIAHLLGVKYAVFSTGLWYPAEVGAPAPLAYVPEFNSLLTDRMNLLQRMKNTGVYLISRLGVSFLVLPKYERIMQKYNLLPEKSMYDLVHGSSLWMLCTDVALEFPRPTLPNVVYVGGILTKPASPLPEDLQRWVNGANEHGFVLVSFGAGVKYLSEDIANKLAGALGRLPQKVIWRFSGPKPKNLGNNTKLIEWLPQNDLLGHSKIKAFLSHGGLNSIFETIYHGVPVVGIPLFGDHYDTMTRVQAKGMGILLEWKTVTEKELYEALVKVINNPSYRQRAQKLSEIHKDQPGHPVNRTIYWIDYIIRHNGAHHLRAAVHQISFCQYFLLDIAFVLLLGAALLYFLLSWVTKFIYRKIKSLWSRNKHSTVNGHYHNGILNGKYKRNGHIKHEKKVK
Summary of the method: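 Lysate (4 μg) of CHO cells transfected with full-length human CGT incubated 1 h at 37 °C with compound (0.001–50 μM) in pH 7.2 HEPES buffer with 10 μM C6-NBD-dihydro-ceramide, 17.5 μM UDP-galactose, Mg2+/Mn2+, CHAPS, BSA, 0.5% DMSO; ** set also contained 0.01% Tween 80. Product quantified by RapidFire/MS/MS, normalized to internal standard; IC50 from sigmoidal variable-slope fits.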

Compound | IC50 [µM]
NC1CC2CCC(C1)N2C(=O)[C@@H](NS(=O)(=O)c1ccc2cc(OC3CCCC3)ccc2c1)C(F)(F)c1cccc(Br)c1 (stereo partly drawn) [Compound 65-1, N-((2R)-3-(3-amino-8-azabicyclo[3.2.1]octan-8-yl)-1-(3-bromophenyl)-1,1-difluoro-3-oxopropan-2-yl)-6-(cyclopentyloxy)naphthalene-2-sulfonamide] | 1 to 10
CCN([C@@H](C(=O)N1C2CCC1CC(N)C2)C(F)(F)c1ccc(Br)cc1)S(=O)(=O)c1ccc2cc(OC3CCCC3)ccc2c1 (stereo partly drawn) [Compound 68-2, N-((2S)-3-(3-amino-8-azabicyclo[3.2.1]octan-8-yl)-1-(4-bromophenyl)-1,1-difluoro-3-oxopropan-2-yl)-6-(cyclopentyloxy)-N-ethylnaphthalene-2-sulfonamide] | 30 to 100
NCC1CCN(C(=O)[C@@H](NS(=O)(=O)c2ccc3cc(OC4CCCC4)ccc3c2)C(F)(F)c2ccc(Br)cc2)CC1 [Compound 57-1, (R)—N-(3-(4-(aminomethyl)piperidin-1-yl)-1-(4-bromophenyl)-1,1-difluoro-3-oxopropan-2-yl)-6-(cyclopentyloxy)naphthalene-2-sulfonamide trifluoroacetate] | < 1
CN([C@@H](C(=O)N1CCC(N)CC1)C(F)(F)c1ccc(Oc2ccccc2)cc1)S(=O)(=O)c1ccc2cc(OC3CCCC3)ccc2c1 [Compound 62-2, (S)—N-(3-(4-aminopiperidin-1-yl)-1,1-difluoro-3-oxo-1-(4-phenoxyphenyl)propan-2-yl)-6-(cyclopentyloxy)-N-methylnaphthalene-2-sulfonamide trifluoroacetate] | 1 to 10
NC1CCN(C(=O)[C@H](NS(=O)(=O)c2ccc3c(cnn3CC3CCCC3)c2)C(F)(F)c2ccc(C(F)(F)F)cc2)CC1 [Compound 93-2, (S)—N-(3-(4-aminopiperidin-1-yl)-1,1-difluoro-3-oxo-1-(4-(trifluoromethyl)phenyl)propan-2-yl)-1-(cyclopentylmethyl)-1H-indazole-5-sulfonamide] | 30 to 100
CN([C@@H](C(=O)N1C2CCC1CC(N)C2)C(F)(F)c1ccc(Br)cc1)S(=O)(=O)c1ccc2cc(OC3CCCC3)ccc2c1 (stereo partly drawn) [Compound 34-2, N-((2S)-3-(3-amino-8-azabicyclo[3.2.1]octan-8-yl)-1-(4-bromophenyl)-1,1-difluoro-3-oxopropan-2-yl)-6-(cyclopentyloxy)-N-methylnaphthalene-2-sulfonamide trifluoroacetate] | 30 to 100
NC1CC2CCC(C1)N2C(=O)[C@H](NS(=O)(=O)c1ccc(OCC2CCCCC2)cc1)C(F)(F)c1cccc(Oc2ccccc2)c1 (stereo partly drawn) [Compound 113-2, N-((2S)-3-(3-amino-8-azabicyclo[3.2.1]octan-8-yl)-1,1-difluoro-3-oxo-1-(3-phenoxyphenyl)propan-2-yl)-4-(cyclohexylmethoxy) benzenesulfonamide trifluoroacetate] | 1 to 10
COc1cc(C(F)(F)[C@H](NS(=O)(=O)c2ccc3cc(OC4CCCC4)ccc3c2)C(=O)N2C3CCC2CC(N)C3)ccc1-c1ccc(Cl)cc1 (stereo partly drawn) [Compound 135-1, N-((2R)-3-(3-amino-8-azabicyclo[3.2.1]octan-8-yl)-1-(4′-chloro-2-methoxy-[1,1′-biphenyl]-4-yl)-1,1-difluoro-3-oxopropan-2-yl)-6-(cyclopentyloxy) naphthalene-2-sulfonamide trifluoroacetate] | < 1
NC1CCN(C(=O)[C@H](NS(=O)(=O)c2ccc3cc(OC4CCCC4)ccc3c2)C(F)(F)c2cccc(Oc3ccccc3)c2)CC1 [Compound 108-2, (S)—N-(3-(4-aminopiperidin-1-yl)-1,1-difluoro-3-oxo-1-(3-phenoxyphenyl)propan-2-yl)-6-(cyclopentyloxy)naphthalene-2-sulfonamide] | 1 to 10
CN([C@H](C(=O)N1C2CCC1CC(N)C2)C(F)(F)c1ccc(Br)cc1)S(=O)(=O)c1ccc2cc(OC3CCCCC3)ccc2c1 (stereo partly drawn) [Compound 37-1, N-((2R)-3-(3-amino-8-azabicyclo[3.2.1]octan-8-yl)-1-(4-bromophenyl)-1,1-difluoro-3-oxopropan-2-yl)-6-(cyclohexyloxy)-N-methylnaphthalene-2-sulfonamide trifluoroacetate] | < 1
NC1CC2CCC(C1)N2C(=O)[C@H](NS(=O)(=O)c1ccc(OCC2CCCCC2)cc1)C(F)(F)c1ccc(OC2CCCCC2)cc1 (stereo partly drawn) [Compound 105-2, N-((2S)-3-(3-amino-8-azabicyclo[3.2.1]octan-8-yl)-1-(4-(cyclohexyloxy)phenyl)-1,1-difluoro-3-oxopropan-2-yl)-4-(cyclohexylmethoxy)benzenesulfonamide] | 10 to 30
COc1cc(C(F)(F)[C@@H](NS(=O)(=O)c2ccc(OCC3CCCCC3)cc2)C(=O)N2C3CCC2CC(N)C3)ccc1Cl (stereo partly drawn) [Compound 125-2, N-((2S)-3-(3-amino-8-azabicyclo[3.2.1]octan-8-yl)-1-(4-chloro-3-methoxyphenyl)-1,1-difluoro-3-oxopropan-2-yl)-4-(cyclohexylmethoxy)benzenesulfonamide] | 10 to 30
NC1CCN(C(=O)[C@H](NS(=O)(=O)c2ccc(OCC3CCCCC3)cc2)C(F)(F)c2ccc(Oc3ccccc3)cc2)CC1 [Compound 63-2, (S)—N-(3-(4-aminopiperidin-1-yl)-1,1-difluoro-3-oxo-1-(4-phenoxyphenyl)propan-2-yl)-4-(cyclohexylmethoxy)benzenesulfonamide trifluoroacetate] | 10 to 30
CCCCOc1ccc(C(F)(F)[C@@H](C(=O)N2C3CCC2CC(N)C3)N(C)S(=O)(=O)c2ccc3cc(OC4CCCC4)ccc3c2)cc1 (stereo partly drawn) [Compound 51-1, N-((2R)-3-(3-amino-8-azabicyclo[3.2.1]octan-8-yl)-1-(4-butoxyphenyl)-1,1-difluoro-3-oxopropan-2-yl)-6-(cyclopentyloxy)-N-methylnaphthalene-2-sulfonamide] | 1 to 10
NC1CCN(C(=O)[C@H](NS(=O)(=O)c2ccc(OCC3CCCCC3)cc2)C(F)(F)c2ccc(-c3ccc(Cl)s3)cc2)CC1 [Compound 117-2, (S)—N-(3-(4-aminopiperidin-1-yl)-1-(4-(5-chlorothiophen-2-yl)phenyl)-1,1-difluoro-3-oxopropan-2-yl)-4-(cyclohexylmethoxy) benzenesulfonamide] | 10 to 30
NC1CCN(C(=O)[C@@H](NS(=O)(=O)c2ccc(OCC3CCCCC3)cc2)C(F)(F)c2cccc(Oc3ccccc3)c2)CC1 [Compound 109-1, (R)—N-(3-(4-aminopiperidin-1-yl)-1,1-difluoro-3-oxo-1-(3-phenoxyphenyl)propan-2-yl)-4-(cyclohexylmethoxy)benzenesulfonamide trifluoroacetate] | 1 to 10
NC1CC2CCC(C1)N2C(=O)[C@@H](NS(=O)(=O)c1ccc2c(cnn2CC2CCCC2)c1)C(F)(F)c1ccc(-c2ccc(Cl)cc2)cc1 (stereo partly drawn) [Compound 94-1, N-((2R)-3-(3-amino-8-azabicyclo[3.2.1]octan-8-yl)-1-(4′-chloro-[1,1′-biphenyl]-4-yl)-1,1-difluoro-3-oxopropan-2-yl)-1-(cyclopentylmethyl)-1H-indazole-5-sulfonamide] | 1 to 10
NC1CC2CCC(C1)N2C(=O)[C@@H](NC(=O)[C@H](O)c1ccc2cc(OC3CCCC3)ccc2c1)C(F)(F)c1ccc(-c2ccc(Cl)cc2)cc1 (stereo partly drawn) [Compound 136-1, (2R)—N-((2R)-3-(3-amino-8-azabicyclo[3.2.1]octan-8-yl)-1-(4′-chloro-[1,1′-biphenyl]-4-yl)-1,1-difluoro-3-oxopropan-2-yl)-2-(6-(cyclopentyloxy)naphthalen-2-yl)-2-hydroxyacetamide trifluoroacetate] | 1 to 10
COc1cc(C(F)(F)[C@@H](NS(=O)(=O)c2ccc3cc(OC4CCCC4)ccc3c2)C(=O)N2CCC(N)CC2)ccc1Cl [Compound 123-2, (S)—N-(3-(4-aminopiperidin-1-yl)-1-(4-chloro-3-methoxyphenyl)-1,1-difluoro-3-oxopropan-2-yl)-6-(cyclopentyloxy)naphthalene-2-sulfonamide] | 1 to 10
NC1CC2CCC(C1)N2C(=O)[C@@H](NS(=O)(=O)c1ccc(OCC2CCCCC2)cc1)C(F)(F)c1ccc2cc(Br)ccc2c1 (stereo partly drawn) [Compound 40-1, N-((2R)-3-(3-amino-8-azabicyclo[3.2.1]octan-8-yl)-1-(6-bromonaphthalen-2-yl)-1,1-difluoro-3-oxopropan-2-yl)-4-(cyclohexylmethoxy) benzenesulfonamide trifluoroacetate] | 1 to 10
CC(C)Oc1ccc2cc(S(=O)(=O)N[C@@H](C(=O)N3C4CCC3CC(N)C4)C(F)(F)c3ccc(-c4ccccc4)cc3)ccc2c1 (stereo partly drawn) [Compound 31-2, N-((2S)-1-([1,1′-biphenyl]-4-yl)-3-(3-amino-8-azabicyclo[3.2.1]octan-8-yl)-1,1-difluoro-3-oxopropan-2-yl)-6-isopropoxynaphthalene-2-sulfonamide trifluoroacetate] | 10 to 30
